pIC50: −log10 of the molar value.
What was measured:
[1] = target: T1, human PRMT6 (Homo sapiens, UniProt Q96LA8); test: PRMT6 Biochemical Assay (3H-SAM Flashplate, peptide substrate); conditions: 30 min preincubation
T1 construct: Flag-PRMT6-His was eluted with 200 ug/ml FLAG peptide in the same buffer; made in house; host or cells: HEK 293F cells (BacMam baculovirus, pFastBacMam)
From the text: Peptide representative of human histone H4 residues 36-50 was synthesized with an N-terminal linker-affinity tag motif and a C-terminal amide cap by 21st Century Biochemicals. The peptide was purified by high-performance liquid chromatography (HPLC) to greater than 95% purity and confirmed by liquid chromatography mass spectrometry (LC-MS). The sequence was Biot-Ahx-[…]-amide and contained a monomethylated lysine at position 44 (SEQ ID NO:5).
Full-length human PRMT6 (NM_018137.2) transcript clone was amplified from an HEK 293 cDNA library, incorporating a flanking 5′ sequence encoding a FLAG tag ([…]) (SEQ ID NO:6) fused directly to Ser 2 of PRMT6 and a 3′ sequence encoding a hexa His sequence (HHHHHH) fused directly to Asp 375. The amplified gene was subcloned into pFastBacMam (Viva Biotech).
Column was washed with 20 mM imidazole in the same buffer and Flag-PRMT6-His was eluted with 150 mM imidazole. Pooled fractions were dialysed against buffer Ni-A and further purified by anti-flag M2 affinity chromatography. Flag-PRMT6-His was eluted with 200 ug/ml FLAG peptide in the same buffer. Pooled fractions were dialysed in 20 mM Tris, 150 mM NaCl, 10% glycerol and 5 mM 3-mercaptoethanol, pH 7.8. The purity of recovered protein was 95%.
General Procedure for PRMT6 Enzyme Assays on Peptide Substrates.
The assays were all performed in a buffer consisting of 20 mM Bicine (pH=7.6), 1 mM TCEP, 0.005% BSG, and 0.002% Tween 20, prepared on the day of use. Compounds in 100% DMSO (1 ul) were spotted into a polypropylene 384-well V-bottom plates (Greiner) using a Platemate Plus outfitted with a 384-channel head (Thermo Scientific). DMSO (1 ul) was added to Columns 11, 12, 23, 24, rows A-H for the maximum signal control and 1 ul of SAH, a known product and inhibitor of PRMT6, was added to columns 11, 12, 23, 24, rows I-P for the minimum signal control. A cocktail (40 ul) containing the PRMT6 enzyme was added by Multidrop Combi (Thermo-Fisher). The compounds were allowed to incubate with PRMT6 for 30 min at room temperature, then a cocktail (10 ul) containing SAM and peptide was added to initiate the reaction (final volume=51 ul). The final concentrations of the components were as follows: PRMT6 was 1 nM, ^3H-SAM was 200 nM, non-radiolabeled SAM was 250 nM, peptide was 75 nM, SAH in the minimum signal control wells was 1 mM, and the DMSO concentration was 2%. The assays were stopped by the addition of non-radiolabeled SAM (10 ul) to a final concentration of 400 uM, which dilutes the ^3H-SAM to a level where its incorporation into the peptide substrate is no longer detectable. 50 ul of the reaction in the 384-well polypropylene plate was then transferred to a 384-well Flashplate and the biotinylated peptides were allowed to bind to the streptavidin surface for at least 1 hour before being washed once with 0.1% Tween20 in a Biotek ELx405 plate washer. The plates were then read in a PerkinElmer TopCount plate reader to measure the quantity of ^3H-labeled peptide bound to the Flashplate surface, measured as disintegrations per minute (dpm) or alternatively, referred to as counts per minute (cpm).
(§1) Where dpm=disintegrations per minute, cmpd=signal in assay well, and min and max are the respective minimum and maximum signal controls.
(§2) Where top and bottom are the normally allowed to float, but may be fixed at 100 or 0 respectively in a 3-parameter fit. The Hill Coefficient normally allowed to float but may also be fixed at 1 in a 3-parameter fit. Y is the % inhibition and X is the compound concentration.

[2] = target: T2, human PRMT1 (Homo sapiens, UniProt Q99873); test: PRMT1 Biochemical Assay (3H-SAM Flashplate, peptide substrate); conditions: 30 min preincubation
T2 construct: GST-tagged PRMT1; made in house; host or cells: High Five insect cells (baculovirus)
From the text: (§3) Peptide representative of human histone H4 residues 36-50 was synthesized with an N-terminal linker-affinity tag motif and a C-terminal amide cap by 21st Century Biochemicals. The peptide was purified by high-performance liquid chromatography (HPLC) to greater than 95% purity and confirmed by liquid chromatography mass spectrometry (LC-MS). The sequence was Biot-Ahx-[…]-amide (SEQ ID NO.: 1).
Full-length human PRMT1 isoform 1 (NM_001536.5) transcript clone was amplified from an HEK 293 cDNA library, incorporating flanking 5′ sequence encoding a FLAG tag ([…]) (SEQ ID NO:2) fused directly to Met 1 of PRMT1. The amplified gene was subcloned into pFastBacI (Life Technologies) modified to encode an N-terminal GST tag and a TEV cleavage sequence
GST-tagged PRMT1 was eluted with 50 mM Tris, 2 mM glutathione, pH 7.8, dialysed in buffer A and concentrated to 1 mg/mL. The purity of recovered protein was 73%. Reference: Wasilko, D. J. and S. E. Lee: “TIPS: titerless infected-cells preservation and scale-up” Bioprocess J., 5 (2006), pp. 29-32.
General Procedure for PRMT1 Enzyme Assays on Peptide Substrates.
The assays were all performed in a buffer consisting of 20 mM Bicine (pH=7.6), 1 mM TCEP, 0.005% BSG, and 0.002% Tween 20, prepared on the day of use. Compounds in 100% DMSO (1 ul) were spotted into a polypropylene 384-well V-bottom plates (Greiner) using a Platemate Plus outfitted with a 384-channel head (Thermo Scientific). DMSO (1 ul) was added to Columns 11, 12, 23, 24, rows A-H for the maximum signal control and 1 ul of SAH, a known product and inhibitor of PRMT1, was added to columns 11, 12, 23, 24, rows I-P for the minimum signal control. A cocktail (40 ul) containing the PRMT1 enzyme was added by Multidrop Combi (Thermo-Fisher). The compounds were allowed to incubate with PRMT1 for 30 min at room temperature, then a cocktail (10 ul) containing SAM and peptide was added to initiate the reaction (final volume=51 ul). The final concentrations of the components were as follows: PRMT1 was 0.5 nM, ^3H-SAM was 200 nM, non-radiolabeled SAM was 1.5 uM, peptide was 20 nM, SAH in the minimum signal control wells was 1 mM, and the DMSO concentration was 2%. The assays were stopped by the addition of non-radiolabeled SAM (10 ul) to a final concentration of 300 uM, which dilutes the ^3H-SAM to a level where its incorporation into the peptide substrate is no longer detectable. 50 ul of the reaction in the 384-well polypropylene plate was then transferred to a 384-well Flashplate and the biotinylated peptides were allowed to bind to the streptavidin surface for at least 1 hour before being washed once with 0.1% Tween20 in a Biotek ELx405 plate washer. The plates were then read in a PerkinElmer TopCount plate reader to measure the quantity of ^3H-labeled peptide bound to the Flashplate surface, measured as disintegrations per minute (dpm) or alternatively, referred to as counts per minute (cpm).
as §1, §2

[3] = test system: mono-methyl arginine in RKO cells; test: RKO Methylation Assay, In Cell Western for mono-methyl arginine; assay type: cell-based; conditions: Homo sapiens, 72 hours, percent activation of mono-methyl arginine signal
From the text: RKO adherent cells were purchased from ATCC (American Type Culture Collection), Manassas, Va., USA. DMEM/Glutamax medium, penicillin-streptomycin, heat inactivated fetal bovine serum, 0.05% trypsin and D-PBS were purchased from Life Technologies, Grand Island, N.Y., USA. Odyssey blocking buffer, 800 CW goat anti-rabbit IgG (H+L) antibody, and Licor Odyssey infrared scanner were purchased from Licor Biosciences, Lincoln, Nebr., USA. Mono-methyl arginine antibody was purchased from Cell Signaling Technology, Danvers, Mass., USA. Methanol was purchased from VWR, Franklin, Mass., USA. 10% Tween 20 was purchased from KPL, Inc., Gaithersburg, Md., USA. DRAQ5 was purchased from Biostatus Limited, Leicestershire, UK.
RKO adherent cells were maintained in growth medium (DMEM/Glutamax medium supplemented with 10% v/v heat inactivated fetal bovine serum and 100 units/mL penicillin-streptomycin) and cultured at 37° C. under 5% CO2.
Cell Treatment, in Cell Western (ICW) for Detection of Mono-Methyl Arginine and DNA Content.
RKO cells were seeded in assay medium at a concentration of 20,000 cells per mL to a poly-D-lysine coated 384 well culture plate (BD Biosciences 356697) with 50 μL per well. Compound (100 nL) from a 96-well source plate was added directly to 384 well cell plate. Plates were incubated at 37° C., 5% CO2 for 72 hours. After three days of incubation, plates were brought to room temperature outside of the incubator for ten minutes and blotted on paper towels to remove cell media. 50 μL of ice cold 100% methanol was added directly to each well and incubated for 30 min at room temperature. After 30 min, plates were transferred to a Biotek EL406 plate washer and washed 2 times with 100 μL per well of wash buffer (IX PBS). Next 60 μL per well of Odyssey blocking buffer (Odyssey Buffer with 0.1% Tween 20 (v/v)) were added to each plate and incubated 1 hour at room temperature. Blocking buffer was removed and 20 μL per well of primary antibody was added (mono-methyl arginine diluted 1:200 in Odyssey buffer with 0.1% Tween 20 (v/v)) and plates were incubated overnight (16 hours) at 4° C. Plates were washed 5 times with 100 μL per well of wash buffer. Next 20 μL per well of secondary antibody was added (1:200 800 CW goat anti-rabbit IgG (H+L) antibody, 1:1000 DRAQ5 (Biostatus limited) in Odyssey buffer with 0.1% Tween 20 (v/v)) and incubated for 1 hour at room temperature. The plates were washed 5 times with 100 μL per well wash buffer then 2 times with 100 μL per well of water. Plates were allowed to dry at room temperature then imaged on the Licor Odyssey machine which measures integrated intensity at 700 nm and 800 nm wavelengths. Both 700 and 800 channels were scanned.
First, the ratio for each well was determined by:
Each plate included fourteen control wells of DMSO only treatment (minimum activation) as well as fourteen control wells for maximum activation treated with 20 μM of a reference compound. The average of the ratio values for each control type was calculated and used to determine the percent activation for each test well in the plate. Reference compound was serially diluted three-fold in DMSO for a total of nine test concentrations, beginning at 20 μM. Percent activation was determined and EC30 curves were generated using triplicate wells per concentration of compound.

[4] = target: T3, human PRMT8 (Homo sapiens, UniProt Q9NR22); test: PRMT8 Biochemical Assay (3H-SAM Flashplate, peptide substrate); conditions: 30 min preincubation
T3 construct: Full-length human PRMT8 (NM_019854.4) isoform 1 transcript clone; GST (N, cleaved yes); made in house; host or cells: E. coli BL21(DE3) Gold
From the text: as §3, with “31-45” for “36-50”, “NO:8).” for “NO.: 1).”
The resulting construct encodes an N-terminal GST tag and a thrombin cleavage sequence
GST-tagged PRMT8 was eluted with 50 mM Tris, 2 mM glutathione, pH 7.8. Pooled fractions were cleaved by thrombin (10 U) and dialysed in buffer A. GST was removed by reloading the cleaved protein sample onto glutathione sepharose column and PRMT8 was collected in the flow-through fractions. PRMT8 was purified further by ceramic hydroxyapatite chromatography. The column was washed with 50 mM phosphate buffer, 100 mM NaCl, 5% glycerol, 5 mM 3-mercaptoethanol, pH 7.8 and PRMT8 was eluted by 100 mM phosphate in the same buffer. Protein was concentrated and buffer was exchanged to 50 mM Tris, 300 mM NaCl, 10% glycerol, 5 mM β-mercaptoethanol, pH 7.8 by ultrafiltration. The purity of recovered protein was 89%.
General Procedure for PRMT8 Enzyme Assays on Peptide Substrates.
The assays were all performed in a buffer consisting of 20 mM Bicine (pH=7.6), 1 mM TCEP, 0.005% BSG, and 0.002% Tween 20, prepared on the day of use. Compounds in 100% DMSO (1 ul) were spotted into a polypropylene 384-well V-bottom plates (Greiner) using a Platemate Plus outfitted with a 384-channel head (Thermo Scientific). DMSO (1 ul) was added to Columns 11, 12, 23, 24, rows A-H for the maximum signal control and 1 ul of SAH, a known product and inhibitor of PRMT8, was added to columns 11, 12, 23, 24, rows I-P for the minimum signal control. A cocktail (40 ul) containing the PRMT8 enzyme was added by Multidrop Combi (Thermo-Fisher). The compounds were allowed to incubate with PRMT8 for 30 min at room temperature, then a cocktail (10 ul) containing ^3H-SAM and peptide was added to initiate the reaction (final volume=51 ul). The final concentrations of the components were as follows: PRMT8 was 1.5 nM, ^3H-SAM was 50 nM, non-radiolabeled SAM was 550 nM, peptide was 150 nM, SAH in the minimum signal control wells was 1 mM, and the DMSO concentration was 2%. The assays were stopped by the addition of non-radiolabeled SAM (10 ul) to a final concentration of 400 uM, which dilutes the ^3H-SAM to a level where its incorporation into the peptide substrate is no longer detectable. 50 ul of the reaction in the 384-well polypropylene plate was then transferred to a 384-well Flashplate and the biotinylated peptides were allowed to bind to the streptavidin surface for at least 1 hour before being washed once with 0.1% Tween20 in a Biotek ELx405 plate washer. The plates were then read in a PerkinElmer TopCount plate reader to measure the quantity of ^3H-labeled peptide bound to the Flashplate surface, measured as disintegrations per minute (dpm) or alternatively, referred to as counts per minute (cpm).
as §1, §2

T1 sequence (Q96LA8 with tags, fused parts or gaps): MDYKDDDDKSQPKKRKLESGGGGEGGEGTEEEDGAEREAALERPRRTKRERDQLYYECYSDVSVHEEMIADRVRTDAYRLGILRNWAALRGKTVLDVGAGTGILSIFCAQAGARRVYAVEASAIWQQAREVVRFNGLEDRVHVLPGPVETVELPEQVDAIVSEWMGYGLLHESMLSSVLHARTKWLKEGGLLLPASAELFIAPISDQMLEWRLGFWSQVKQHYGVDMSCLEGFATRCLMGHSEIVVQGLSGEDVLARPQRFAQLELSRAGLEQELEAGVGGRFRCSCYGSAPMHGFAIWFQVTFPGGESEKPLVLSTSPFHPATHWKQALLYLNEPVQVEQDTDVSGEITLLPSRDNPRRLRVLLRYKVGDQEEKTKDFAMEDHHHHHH
T3 sequence (Q9NR22 whole entry, canonical isoform): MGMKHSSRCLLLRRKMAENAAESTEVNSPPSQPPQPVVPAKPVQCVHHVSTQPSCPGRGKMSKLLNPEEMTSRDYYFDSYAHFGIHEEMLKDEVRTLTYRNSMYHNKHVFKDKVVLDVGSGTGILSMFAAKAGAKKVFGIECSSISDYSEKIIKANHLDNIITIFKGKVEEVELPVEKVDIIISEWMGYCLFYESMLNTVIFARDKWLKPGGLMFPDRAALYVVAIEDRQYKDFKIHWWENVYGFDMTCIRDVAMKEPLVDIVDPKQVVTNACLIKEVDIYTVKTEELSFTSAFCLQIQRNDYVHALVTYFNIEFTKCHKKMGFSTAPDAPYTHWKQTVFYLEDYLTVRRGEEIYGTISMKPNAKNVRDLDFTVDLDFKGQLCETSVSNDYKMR
T2 sequence (Q99873 with tags, fused parts or gaps): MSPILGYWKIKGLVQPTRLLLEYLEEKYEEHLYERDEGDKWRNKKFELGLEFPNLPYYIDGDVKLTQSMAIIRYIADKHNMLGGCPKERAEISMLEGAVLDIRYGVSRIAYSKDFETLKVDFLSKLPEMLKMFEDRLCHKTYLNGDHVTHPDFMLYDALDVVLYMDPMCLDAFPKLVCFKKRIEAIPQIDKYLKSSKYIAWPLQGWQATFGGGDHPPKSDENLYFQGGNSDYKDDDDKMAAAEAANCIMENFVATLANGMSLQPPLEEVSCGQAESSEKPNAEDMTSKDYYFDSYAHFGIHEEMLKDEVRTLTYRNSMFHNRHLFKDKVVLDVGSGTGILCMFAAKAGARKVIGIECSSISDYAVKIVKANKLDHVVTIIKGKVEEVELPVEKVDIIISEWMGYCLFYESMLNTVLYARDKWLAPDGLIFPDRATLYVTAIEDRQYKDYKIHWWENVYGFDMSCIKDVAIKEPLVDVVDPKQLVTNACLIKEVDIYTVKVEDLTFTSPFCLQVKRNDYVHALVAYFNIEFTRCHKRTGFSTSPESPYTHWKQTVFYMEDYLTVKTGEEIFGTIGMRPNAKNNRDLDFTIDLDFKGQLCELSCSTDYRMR

SMILES | pIC50 [1] | pIC50 [2] | EC30 [3] [µM] | pIC50 [4]
CN(CCN)Cc1c[nH]nc1C1CC1 [Compound 12] | 5.52 to 6.00 | 5.52 to 6.00 |  | 
CN(CCN)Cc1c[nH]nc1C(C)(C)C [Compound 27] | 5.52 to 6.00 |  | > 12 | 
CNCCN(C)Cc1c[nH]nc1C1CCN(C(=O)CC(C)C)CC1 [Compound 40, 3-methyl-1-(4-(4-((methyl(2-(methylamino)ethyl)amino)methyl)-1H-pyrazol-3-yl)piperidin-1-yl)butan-1-one] | > 7.00 |  |  | 6.00 to 7.00
CN(CCN)Cc1c[nH]nc1C1CCC(N2CCOCC2)CC1 (centres unmarked) [Compound 43, N^1-methyl-N^1-((3-(4-morpholinocyclohexyl)-1H-pyrazol-4-yl)methyl)ethane-1,2-diamine] | > 7.00 |  | < 3 | 

From US11185531B2, “Arginine methyltransferase inhibitors and uses thereof” (Epizyme, Inc., priority 2013, dated 2021)
